{"source": "paper PMC6707612", "about": "“Cyclic-di-GMP binds to histidine kinase RavS to control RavS-RavR phosphotransfer and regulates the bacterial lifestyle transition between virulence and swimming” (PLoS Pathogens, 2019)", "assay_in_all_cases": "microscale thermophoresis (MST) binding", "key": {"RavS^ΔN": {"biological_target": "T1, RavS^ΔN (Xanthomonas campestris pv. campestris, UniProt Q8P9A6)", "T1 sequence (Q8P9A6 352-697)": "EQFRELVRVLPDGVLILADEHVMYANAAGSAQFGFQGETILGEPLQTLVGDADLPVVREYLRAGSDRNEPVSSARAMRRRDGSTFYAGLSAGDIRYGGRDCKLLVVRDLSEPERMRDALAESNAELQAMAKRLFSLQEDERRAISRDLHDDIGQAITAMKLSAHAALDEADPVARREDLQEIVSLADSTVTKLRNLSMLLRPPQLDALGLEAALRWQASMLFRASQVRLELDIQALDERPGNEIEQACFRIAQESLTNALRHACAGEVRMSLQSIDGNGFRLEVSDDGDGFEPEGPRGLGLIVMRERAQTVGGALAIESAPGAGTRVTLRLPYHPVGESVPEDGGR", "conditions": "20 nM fluorescein-labelled nucleotide, read-out: dissociation constant (Kd)", "protocol": "(§1) The interaction between c-di-GMP nucleotides and various proteins was measured by using MST with a fluorescein-labelled c-di-GMP (2′-Fluo-AHC-c-di-GMP, abbreviated as fl-c-di-GMP; 2′-Fluo-AHC-c-di-AMP, fl-c-di-AMP; 2′-Fluo-AHC-cGMP, fl-cGMP; Biolog, Germany). These chemicals contain carboxyfluorescein that has excitation and emission wavelengths of 497 nm and 520 nm, respectively, which can be detected directly by a MST instrument. The experiments were performed on a Monolith NT.115 device using standard treated capillaries (NanoTemper Technologies, Germany). The concentration of the particular protein varied from 0.036 to 150 μM with a 2-fold gradient and the concentration of fl-c-di-GMP was constant at 20 nM. Fluorescence intensity due to thermophoresis was recorded using the blue channel optics of the instrument (λex = 470 ± 15 nm, λem = 520 ± 10 nm) during a 30 s period of infrared laser heating at 80% of the maximum laser power, followed by a 5 s cooling period. Measurements were performed in buffer containing 20 mM HEPES, pH 7.5, 150 mM NaCl, 2 mM MgCl2, 2 mM DTT and 0.05% Tween 20. […]\n(§2) Supplementary file ppat.1007952.s007.pdf: S7 Fig c-di-GMP specifically binds to RavS to enhance the RavS-RavR phosphotransfer. […] The interactions of RavS^ΔN, RavA, VgrS and RavR^ΔEAL with fl-c-di-GMP were measured by microscale thermophoresis (MST). Twenty nanomolar fluorescein-labelled nucleotides and increasing concentrations of proteins were co-incubated and potential interactions were measured by MST. The dissociation constant (Kd) was determined to estimate the binding affinity. […]\n(§3) (b) RavSΔN specifically interacts with fl-c-di-GMP. The interactions of RavSΔN, RavA, VgrS and RavRΔEAL with fl-c-di-GMP were measured by microscale thermophoresis (MST). Twenty nanomolar fluorescein-labelled nucleotide and increasing concentrations of proteins were co-incubated and potential interactions were measured by MST.\n(§4) The dissociation constant (Kd) was determined to estimate the binding affinity. […]"}, "VgrS": {"biological_target": "VgrS (Xanthomonas campestris pv. campestris, UniProt Q8P666)", "sequence (Q8P666 entry or part of it)": "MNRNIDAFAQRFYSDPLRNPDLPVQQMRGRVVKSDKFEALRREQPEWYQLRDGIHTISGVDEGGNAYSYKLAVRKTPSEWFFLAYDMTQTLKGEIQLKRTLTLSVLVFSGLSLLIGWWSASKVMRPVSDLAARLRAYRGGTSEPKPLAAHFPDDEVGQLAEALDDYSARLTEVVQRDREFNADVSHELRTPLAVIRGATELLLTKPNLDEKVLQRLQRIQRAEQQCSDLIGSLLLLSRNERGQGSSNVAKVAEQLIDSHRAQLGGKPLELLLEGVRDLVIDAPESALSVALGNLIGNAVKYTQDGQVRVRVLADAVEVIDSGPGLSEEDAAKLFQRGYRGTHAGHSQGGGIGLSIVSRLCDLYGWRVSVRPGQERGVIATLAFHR", "conditions": "20 nM fluorescein-labelled nucleotide, read-out: dissociation constant (Kd)", "protocol": "as §1, §2, §3, §4"}, "DHp domain of RavS": {"biological_target": "DHp domain of RavS", "design": "species or system Xanthomonas campestris pv. campestris", "conditions": "DHp region", "protocol": "(§5) Fig 6 Arg^656 in the CA domain of RavS is a key residue for c-di-GMP binding. (a, b) c-di-GMP binds to the DHp-CA domain of RavS. PAS-A, PAS-B and DHp-CA in (a), and DHp and CA domains of RavS in (b), were purified and the interaction with c-di-GMP was measured by MST. Each assay was repeated three times. Standard deviations are shown. (c) Molecular docking model of the interaction between c-di-GMP and DHp-CA of RavS. c-di-GMP is shown as a ball-and-stick model and DHp-CA is shown in ribbon representation. (d) Schematic view of the predicted docking site between c-di-GMP and DHp-CA. Potential hydrogen bonds are indicated as blue dashed lines. Autodock software was used to predict the interaction. (e) Effect of amino acid substitutions on RavS–c-di-GMP binding. Ten recombinant proteins of the DHp-CA region, each containing a substitution of a putative essential residue involved in c-di-GMP binding, were used in the MST assay to quantify the Kd value of RavS–c-di-GMP binding. fl-c-di-GMP was used in the MST assay. Each experiment was repeated three times. […] The reactions were terminated with 5× SDS loading buffer and the products were separated by 12% SDS-PAGE, exposed to a phosphor screen and analysed by Typhoon FLA7000. […]\n(§6) The interaction between c-di-GMP nucleotides and various proteins was measured by using MST with a fluorescein-labelled c-di-GMP (2′-Fluo-AHC-c-di-GMP, abbreviated as fl-c-di-GMP; 2′-Fluo-AHC-c-di-AMP, fl-c-di-AMP; 2′-Fluo-AHC-cGMP, fl-cGMP; Biolog, Germany). These chemicals contain carboxyfluorescein that has excitation and emission wavelengths of 497 nm and 520 nm, respectively, which can be detected directly by a MST instrument. […] Fluorescence intensity due to thermophoresis was recorded using the blue channel optics of the instrument (λex = 470 ± 15 nm, λem = 520 ± 10 nm) during a 30 s period of infrared laser heating at 80% of the maximum laser power, followed by a 5 s cooling period. […]"}, "PAS-A of RavS": {"biological_target": "PAS-A of RavS", "design": "species or system Xanthomonas campestris pv. campestris", "conditions": "PAS-A region", "protocol": "as §5, §6"}, "PAS-B of RavS": {"biological_target": "PAS-B of RavS", "design": "species or system Xanthomonas campestris pv. campestris", "conditions": "PAS-B region", "protocol": "as §5, §6"}}, "note": "Values joined by “and” are separate entries in the source; they are usually repeats but may differ in a detail not shown here. Equal entries are not always repeated.", "data": [{"smiles": "Nc1nc2c(ncn2[C@@H]2O[C@@H]3COP(=O)(O)O[C@H]4[C@@H](OC(=O)NCCCCCCNC(=O)c5ccc6c(c5)C(=O)OC65c6ccc(O)cc6Oc6cc(O)ccc65)[C@H](n5cnc6c(=O)[nH]c(N)nc65)O[C@@H]4COP(=O)(O)O[C@H]3[C@H]2O)c(=O)[nH]1", "note": "[fl-c-di-GMP, 2′-Fluo-AHC-c-di-GMP]", "values": [{"measurement": "Kd", "setting": "RavS^ΔN", "result": "5.62 ± 0.74", "unit": "µM"}, {"measurement": "Kd", "setting": "VgrS", "result": "88.1 µM and > 80 µM"}, {"measurement": "binding (MST)", "setting": "DHp domain of RavS", "result": "no binding"}, {"measurement": "binding (MST)", "setting": "PAS-A of RavS", "result": "no binding"}, {"measurement": "binding (MST)", "setting": "PAS-B of RavS", "result": "no binding"}]}]}
